Results published in paper PMC7436049, “Combining In Silico and In Vitro Studies to Evaluate the Acetylcholinesterase Inhibitory Profile of Different Accessions and the Biomarker Triterpenes of Centella asiatica” (Molecules, 2020).
Like-named read-outs stand apart in the source and are kept apart here.

Target: T1, acetylcholinesterase from electrophorus electricus (Electrophorus electricus, UniProt O42275)
T1 construct: purchased Sigma–Aldrich (St. Louis, MO, USA)
Assay: biochemical
Conditions: read-out: AChE inhibitory activity, IC50 Values (converted)
Experimental: All solvents were HPLC grade, purchased from Merck (Darmstadt, Germany). […] Sodium monobasic […] were purchased from Merck (Darmstadt, Germany), and acetylcholinesterase from electrophorus electricus, 5,5′-Dithiobis (2-nitrobenzoic acid), and […] were obtained from Sigma–Aldrich (St. Louis, MO, USA).
The AChE inhibitory activity was evaluated using Ellman’s method, as reported previously. Each sample (20 µL of 5 mg/mL in DMSO) was dispensed in triplicate into a 96-well microplate and mixed with 190 µL of DTNB, 20 µL of substrate (ATCI). The control wells contained 2% of DMSO instead of the extract. The enzymatic activity was measured at 412 nm every 30 s intervals for 3 min. The buffer solution was used as negative control.
The percentage inhibition (%I) of each sample and the positive control (physostigmine) was calculated using the formula:%I: [(Ac − As)/(Ac)] × 100(1) where (%I): Percentage inhibition • Ac: Absorbance of negative control • As: Absorbance of sample
The experiments were expressed as the mean ± standard error of the mean (SEM) in triplicates.

[1] = Ellman's method, 412 nm, mean ± SEM, triplicates

T1 sequence (O42275 24-633): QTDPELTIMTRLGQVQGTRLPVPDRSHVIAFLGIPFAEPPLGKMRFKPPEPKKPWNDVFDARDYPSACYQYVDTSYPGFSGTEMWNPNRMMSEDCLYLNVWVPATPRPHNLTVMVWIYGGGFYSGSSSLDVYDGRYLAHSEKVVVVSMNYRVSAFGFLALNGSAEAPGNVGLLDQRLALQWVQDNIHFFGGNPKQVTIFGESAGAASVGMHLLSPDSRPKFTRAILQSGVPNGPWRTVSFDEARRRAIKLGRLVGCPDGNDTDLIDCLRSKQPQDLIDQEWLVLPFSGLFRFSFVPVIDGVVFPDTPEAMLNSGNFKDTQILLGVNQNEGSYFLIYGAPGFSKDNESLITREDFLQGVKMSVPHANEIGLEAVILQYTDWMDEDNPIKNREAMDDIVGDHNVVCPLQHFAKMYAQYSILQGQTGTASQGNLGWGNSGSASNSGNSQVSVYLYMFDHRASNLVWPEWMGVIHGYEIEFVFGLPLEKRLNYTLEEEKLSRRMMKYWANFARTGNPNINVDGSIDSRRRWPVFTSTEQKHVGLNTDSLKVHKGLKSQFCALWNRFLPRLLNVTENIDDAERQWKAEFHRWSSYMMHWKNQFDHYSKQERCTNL

Structure (SMILES)	IC50 [1] [µM]	IC50 [µM]
C[C@H]1[C@H](C)CC[C@]2(C(=O)O)CC[C@]3(C)C(=CC[C@@H]4[C@@]5(C)C[C@@H](O)[C@H](O)[C@@](C)(CO)[C@@H]5[C@H](O)C[C@]43C)[C@H]12 [Madecassic acid, madecassic acid]	35.3	
C[C@H]1[C@H](C)CC[C@]2(C(=O)O)CC[C@]3(C)C(=CC[C@@H]4[C@@]5(C)C[C@@H](O)[C@H](O)[C@@](C)(CO)[C@@H]5CC[C@]43C)[C@H]12 [Asiatic acid, asiatic acid]	30.8	
C[C@H]1[C@H](C)CC[C@]2(C(=O)O[C@@H]3O[C@H](CO[C@@H]4O[C@H](CO)[C@@H](O[C@@H]5O[C@@H](C)[C@H](O)[C@@H](O)[C@H]5O)[C@H](O)[C@H]4O)[C@@H](O)[C@H](O)[C@H]3O)CC[C@]3(C)C(=CC[C@@H]4[C@@]5(C)C[C@@H](O)[C@H](O)[C@@](C)(CO)[C@@H]5[C@H](O)C[C@]43C)[C@H]12 [Madecassoside, madecassoside]		38.1
